Source: patent US5302602A, “Tricyclic thromboxane A2 antagonists” (Kyowa Hakko Kogyo Co., Ltd., priority 1987, dated 1994)
Like-named read-outs stand apart in the source and are kept apart here. One block for each compound: values may come before it.

Columns and labels:
mice = assay: Acute toxicity test; type: in vivo; settings: mortality observed for seven days
Procedure: Using three dd strain male mice weighing 20±1 g, a test compound was orally (po; 300 mg/kg) or intraperitoneally (ip; 100 mg/kg) administered. MLD (the minimum lethal dose) was determined by observing the mortality for seven days after administration.

[1] = system: homologous passive cutaneous anaphylaxis (PCA); assay: Antiallergic activity test: homologous passive cutaneous anaphylaxis (PCA) test for 48 hours using rats; type: in vivo, rat (Wistar strain, male); settings: Rattus norvegicus, po, minimum dose with at least one of 3 rats showing PCA inhibition rate 50% or more, read-out: Antiallergic Activity (MED), minimum effective dose
Procedure: Antiallergic activity was examined in accordance with the passive cutaneous anaphylaxis (PCA) test using rats. As test animals, Wistar strain male rats weighing 180 to 220 g were used to collect antiserum and for the PCA test, Wistar strain male rats weighing 120 to 140 g were used.
Anti-EWA rat serum was prepared according to the method of Stotland and Share [Can. J. Physiol. Pharmacol., 52, 1114 (1974)]. That is, 1 mg of EWA was mixed with 20 mg of aluminum hydroxide gel and 0.5 ml of pertussis-diphtberia-tetanus mixed vaccine. The mixture was subcutaneously administered to the rat paw in 4 portions. Fourteen days after, blood was collected from the carotid artery and the serum was isolated and stored in a state frozen at -80° C. Titer of this antiserum to homologous PCA for 48 hours was 1:32.
Three rats were used per group. After the hair at the back was cut, 0.05 ml each of anti-EWA rat serum diluted to 8-fold with physiological saline was intracutaneously injected to each rat at the back in 2 places to passively sensitize the rat. A test compound or its solution (physiological saline solution or CMC solution) was orally administered 47 hours after and 0.5 ml/100 g of 1% Evans Blue physiological saline containing 2 mg of antigen EWA was then intravenously administered to the tail vein an hour after the administration. Thirty minutes later, the animal was bled to death. The skin was peeled off and a leaked dye amount at the blue dyed portion was measured according to the method of Katayama et al. [Microbiol. Immunol., 22, 89 (1978)]. That is, the blue dyed portion was cut off with scissors, put into a test tube charged with 1 ml of 1 N potassium hydroxide and incubated at 37° C. for 24 hours. After 9 ml of a mixture of 0.6 N phosphate:acetone (5:13) was added to the system, the mixture was shaken followed by centrifugation at 2500 rpm for 10 minutes. The absorbancy of the supernatant at 620 nm was measured and the leaked dye amount was quantitatively determined by comparison with a calibration curve previously prepared. A value of one rat was obtained from a mean value of the two portions and an inhibition rate-of each rat was calculated according to the following equation. [formula]
The case showing that the inhibition rate is 50% or more is judged to be positive in the PCA inhibition activity and the minimum dose in which at least one out of 3 rats was recognized to be positive was defined as the minimum effective dose (MED) of the test compound.

[2] = system: guinea pig platelets (TXA2/prostaglandin H2 receptor); assay: Test on anti-platelet activity (TXA2 antagonizing test): inhibition of U-46619-induced platelet aggregation; type: cell-based; settings: Cavia porcellus, 0.05 h; minimum concentration inhibiting U-46619 (0.5-1 μM)-induced platelet aggregation by 30% or more; guinea pig PRP; read-out: TXA2 Antagonizing Activity (MEC), minimum effective concentration
Procedure: Using guinea pig platelets influence of the compounds in accordance with the present invention on platelet aggregation induced by U-46619 (9,11-dideoxy-9α,11a-methanoepoxyprostaglandin F2 α; manufactured by Cayman Chemica Co., Ltd.) which is a TXA2 /prostaglandin H2 receptor stimulant was examined.
Male guinea pig (Hartley strain; body weight, 300 to 600 g) was anesthesized by intraperitoneal administration of sodium pentobarbital (30 mg/kg) and blood was collected from the descending aorta of the abdomen with a 1/10 volume of sodium citrate. By centrifugation (KC-70: manufactured by Kubota Co., Ltd.) at 800 rpm for 10 minutes, platelet rich plasma (PRP) was collected. Platelet aggregation induced by U-46619 (0.5-1 μM) was determined by photometry [Born, G.V.R. et al., Nature (London), 194, 927-929 (1962)]. A test compound was pretreated 3 minutes prior to aggregation induction and ability of inhibiting aggregation was measured. The minimum concentration for inhibiting platelet aggregation by 30% or more was defined as the minimum effective concentration (MEC) of the test compound.

TXA2 receptor = biological target: T1, TXA2 receptor (Cavia porcellus, UniProt A0A286Y4I8); assay: Binding study using 3H-U46619 (TXA2 receptor binding activities test); set-up: species or system guinea pig; settings: for inhibition at 1 µM: 20 min, read-out: % Inhibition (3H-U46619 binding); for inhibitory activity (TXA2 receptor binding), in words: statement in words on Table 4
T1 construct: To a washed platelet suspension (1×10^8 platelets) of guinea pig; endogenous in cells; host or cells: washed guinea pig platelets
T1 sequence (A0A286Y4I8 1-347): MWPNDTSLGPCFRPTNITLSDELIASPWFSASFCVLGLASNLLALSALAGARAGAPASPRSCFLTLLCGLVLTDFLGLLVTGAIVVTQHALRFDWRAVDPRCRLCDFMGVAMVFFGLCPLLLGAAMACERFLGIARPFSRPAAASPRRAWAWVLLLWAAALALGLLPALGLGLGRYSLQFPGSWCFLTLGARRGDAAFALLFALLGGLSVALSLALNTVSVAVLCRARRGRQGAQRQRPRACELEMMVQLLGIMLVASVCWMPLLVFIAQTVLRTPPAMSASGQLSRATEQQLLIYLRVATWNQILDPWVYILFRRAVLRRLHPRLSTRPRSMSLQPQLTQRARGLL
Procedure: Receptor binding was determined by a modified method of Kattelman et al. (Thrombosis Research, 41, 471 (1986)].
To a washed platelet suspension (1×10^8 platelets) of guinea pig were added 12 nM of tritium-labeled U46619 (^3 H-U46619; NEN Co., Ltd.) and a test compound (final concentration: 1 μM) solution. After keeping at 37° C. for 20 minutes, the mixture was rapidly filtered through a glass fiber filter paper (GF/C; Whatman). Immediately, the filter paper was washed 5 times with 3 ml of ice-cold 50 mM Tris-hydroxymethylaminomethane buffer (containing 100 mM sodium chloride). The glass fiber filter was transferred to a vial and a scintillator (Ex-H; manufactured by Wako Pure Chemical Industries Co., Ltd.) was added thereto. The radioactivity was determined with a liquid scintillation counter.
It is already known that ^3 H-U46619 is capable of binding with TXA2 receptor (see the publication supra). An inhibitory activity of the test compound against this binding means an ability of binding with the TXA2 receptor. It is also known that a good relationship exists between this binding activity and the anti-platelet activity (TXA2 antagonizing test).
An inhibitory activity (binding activity) of the test compound was calculated by the following equation. [formula]
Amount of the total binding is an amount of ^3 H-U46619-bound radioactivity in the absence of a test compound.
The amount of non-specific binding is used to mean an amount of ^3 H-U46619-bound radioactivity in the presence of 10 μM U-46619.
The amount bound in the presence of a test compound is an amount of ^3 H-U46619-bound radioactivity in the presence of a test compound in various concentrations.

[3] = test compound 1 μM, 12 nM 3H-U46619, washed guinea pig platelets, 37° C., 20 minutes

Compound: O=C(O)c1ccc2c(c1)C(SCCN1CCN(c3ccc(F)cc3)CC1)c1ccccc1CO2 (stereo not drawn) [Compound 8b]
Acute Toxicity (MLD), minimum lethal dose (mice; ip): > 100 mg/kg
Acute Toxicity (MLD), minimum lethal dose (mice; po): > 300 mg/kg
minimal effective dose [1]: 10 mg/kg
minimal effective concentration [2]: 1 µg/mL

Compound: COc1ccccc1N1CCN(CCSC2c3ccccc3COc3ccc(C(=O)O)cc32)CC1 (stereo not drawn) [Compound 9b]
Acute Toxicity (MLD), minimum lethal dose (mice; ip): > 100 mg/kg
Acute Toxicity (MLD), minimum lethal dose (mice; po): > 300 mg/kg
minimal effective dose [1]: 10 mg/kg
minimal effective concentration [2]: 1 µg/mL

Compound: O=C(O)c1ccc2c(c1)C(SCCN1CCC(c3ccccc3)CC1)c1ccccc1CO2 (stereo not drawn) [Compound 37b, 11-[2-(4-Phenyl-1-piperidinyl)ethyl]thio-6,11-dihydrodibenz[b,e]oxepin-2-carboxylic acid]
Acute Toxicity (MLD), minimum lethal dose (mice; ip): > 100 mg/kg
Acute Toxicity (MLD), minimum lethal dose (mice; po): > 300 mg/kg
minimal effective dose [1]: 1 mg/kg
minimal effective concentration [2]: 10 µg/mL

inhibition at 1 µM (TXA2 receptor; [3]): 1%
inhibitory activity (TXA2 receptor binding), in words (TXA2 receptor): not observed
Compound: CN(C)CCC=C1c2ccccc2COc2ccc(CC(=O)O)cc21 [Compound (B), reference compound]

Compound: O=C(O)c1ccc2c(c1)/C(=C/CN1CCN(c3ccc(F)cc3)CC1)c1ccccc1CO2 [Compound E-73b, (E)-11-[2-[4-(4-Fluorophenyl)-1-piperazinyl]ethylidene]-6,11-dihydrodibenz[b,e]oxepin-2-carboxylic acid.isopropanol. monohydrate]
Acute Toxicity (MLD), minimum lethal dose (mice; ip): > 100 mg/kg
Acute Toxicity (MLD), minimum lethal dose (mice; po): > 300 mg/kg
inhibition at 1 µM (TXA2 receptor; [3]): 85%
minimal effective dose [1]: > 100 mg/kg
minimal effective concentration [2]: 10 µg/mL

Compound: O=C(O)c1ccc2c(c1)/C(=C/CN1CCN(S(=O)(=O)C=Cc3ccccc3)CC1)c1ccccc1CO2 [Compound E-78b, (E)-11-[2-[4-(Styrylsulfonyl)-1-piperazinyl]ethylidene]-6,11-dihydrodibenz[b,e]oxepin-2-carboxylic acid-0.1 iso-propanol.0.1 hydrate]
Acute Toxicity (MLD), minimum lethal dose (mice; ip): > 100 mg/kg
Acute Toxicity (MLD), minimum lethal dose (mice; po): > 300 mg/kg
inhibition at 1 µM (TXA2 receptor; [3]): 83%
minimal effective dose [1]: > 100 mg/kg
minimal effective concentration [2]: 3 µg/mL

Compound: O=C(O)c1ccc2c(c1)/C(=C/CN1CCN(S(=O)(=O)c3cccs3)CC1)c1ccccc1CO2 [Compound E-79b, (E)-11-[2-[4-(2-Thienylsulfonyl)-1-piperazinyl]ethylidene]-6,11-dihydrodibenz[b,e]oxepin-2-carboxylic acid.0.5 hydrate]
Acute Toxicity (MLD), minimum lethal dose (mice; ip): > 100 mg/kg
Acute Toxicity (MLD), minimum lethal dose (mice; po): > 300 mg/kg
inhibition at 1 µM (TXA2 receptor; [3]): 77%
minimal effective dose [1]: > 100 mg/kg
minimal effective concentration [2]: 30 µg/mL

Compound: O=C(O)c1ccc2c(c1)/C(=C/CN1CCN(CC=Cc3ccccc3)CC1)c1ccccc1CO2 [E-75b', (E)-11-[3-(4-Cinnamyl-1-piperazinyl)ethylidene]-6,11-dihydrodibenz[b,e]oxepin-2-carboxylic acid.difumarate-0.5 hydrate]
Acute Toxicity (MLD), minimum lethal dose (mice; ip): > 100 mg/kg
Acute Toxicity (MLD), minimum lethal dose (mice; po): > 300 mg/kg
inhibition at 1 µM (TXA2 receptor; [3]): 85%
minimal effective dose [1]: 100 mg/kg
minimal effective concentration [2]: 0.1 µg/mL

Compound: CN1CCC(=C2c3ccccc3CC(=O)c3sccc32)CC1 [Ketotifen, reference compound]
inhibition at 1 µM (TXA2 receptor): -3%
inhibitory activity (TXA2 receptor binding), in words (TXA2 receptor): not observed
